The text below walks through data of PubChem BioAssay AID1996.

As usually defined, the solubility (kinetic) is the concentration staying in solution when a stock, usually in DMSO, is diluted into the medium.

The structures appear in SMILES notation. Values after ≈ are worked out from the molar mass of the structure shown.

The conditions of the data set: buffer; pH 7.4; 200.0 µM.
With `CCCCCn1cnnc1SCC(=O)c1ccc2c(c1)OCO2`, the kinetic solubility was greater than 50 µg/mL.

On to `CCOCC(=O)OCC(=O)NC12CC3CC(CC(C3)C1)C2`, for which the kinetic solubility is greater than 44.3 µg/mL. On to `O=S(=O)(NCC(O)c1ccccc1)c1ccc(-c2ccccn2)s1` (stereo unspecified), for which the solubility (kinetic) was greater than 54.1 µg/mL. The result for `CN(C)C=Nc1c(Br)cc(Br)c2nonc12` reads 6 µg/mL (≈ 17.2 µM); that for `CC1CCCCC1NC(=O)CN1C(=O)COc2ccccc21` (stereo unspecified), 8.2 µg/mL (≈ 27.1 µM); that for `CCOc1cc(C(=O)N2CCCN(C)CC2)cc(OCC)c1OCC`, greater than 52.6 µg/mL. For `O=C(c1ccco1)N1CCN(c2ccc([N+](=O)[O-])cc2F)CC1` the value was 7 µg/mL (≈ 21.9 µM).

Consider `O=C(O)c1nccnc1C(=O)Nc1ccc(Cl)cc1Cl`, for which the kinetic solubility was greater than 46.8 µg/mL.

Compound `Cc1ccc(NC(=O)COc2ccc3c(c2)OCO3)c(C)c1` registered a solubility (kinetic) of 6.1 µg/mL (≈ 20.4 µM).

In turn, `Cc1ccc2c(c1)c1c3n2CCN(C=O)C3CCC1` (stereo unspecified) came in with a kinetic solubility of 28.1 µg/mL (≈ 110 µM). For `CC(C)c1ccc(NC(=O)Nc2cnccn2)cc1` the value was 3.9 µg/mL (≈ 15.2 µM). The result for `O=[N+]([O-])c1ccccc1CSc1ccccn1` reads 13.7 µg/mL (≈ 55.6 µM); that for `O=C(COc1ccccc1Cl)N1CCNC1=O`, greater than 38.2 µg/mL. For `CC(=O)Nc1ccc(-n2c(C)ccc2C)cc1` the value was greater than 34.2 µg/mL; for `Cc1ccnc(NC(=O)CNC(=O)c2ccco2)c1`, greater than 38.9 µg/mL. `Cc1ccc(-c2nc(N)sc2C)cc1` showed a kinetic solubility of 30.2 µg/mL (≈ 148 µM). The result for `C=CCSc1nc2sc3c(c2c(=O)[nH]1)CC(C)(CC)OC3` (stereo unspecified) reads 0.5 µg/mL (≈ 1.55 µM); that for `CC(C)C1Oc2ccccc2N(CC(=O)N(C)C2CCCCC2)C1=O` (stereo unspecified), greater than 51.7 µg/mL; that for `CCN1CCOC(CC(=O)Nc2ccc([N+](=O)[O-])cc2)C1=O` (stereo unspecified), 40.2 µg/mL (≈ 131 µM).

As for `Cc1ccc(NC(=O)C(=O)NCCCN2CCOCC2)c(C)c1`, the solubility (kinetic) is greater than 47.9 µg/mL. For `COc1cc(C(=O)NNC(=O)C2CCCC2)cc(OC)c1OC` the value was greater than 48.4 µg/mL; for `CCC(NC(=S)NC1CCCCC1)c1ccc(C)cc1` (stereo unspecified), 5.3 µg/mL (≈ 18.2 µM); for `CN(C)Cc1cc2ccccc2c2c1COC2`, 31.5 µg/mL (≈ 139 µM). The result for `O=c1[nH]cc(NCCc2ccccc2)c(=O)[nH]1` reads greater than 34.7 µg/mL; that for `COCc1ccc(C(=O)NC2CCSc3ccccc32)cc1` (stereo unspecified), 16.8 µg/mL (≈ 53.6 µM). The result for `Cc1ccc(C(=O)NCC(=O)Nc2ccc3c(c2)CCC3)cc1` reads 3 µg/mL (≈ 9.73 µM); that for `Cc1ccc(OCCn2c(=O)oc3ccc(C)cc32)cc1`, less than 0.6 µg/mL; that for `O=C(NC1=NCCS1)c1ccc(Cl)c(Cl)c1`, 0.9 µg/mL (≈ 3.27 µM). `FC(F)(F)c1ccccc1NC(=S)Nc1ccccc1` had a kinetic solubility of 21.6 µg/mL (≈ 72.9 µM). The result for `COc1ccc(CN2CCN(C3CCC3)CC2CCO)c(F)c1` (stereo unspecified) reads 42.2 µg/mL (≈ 131 µM); that for `CCn1c(=S)[nH]c2sc3c(c2c1=O)CCCC3`, 9.2 µg/mL (≈ 34.5 µM); that for `O=C(CN1C(=O)NC2(CCCC2)C1=O)NCc1ccc(F)cc1`, greater than 47.9 µg/mL. `NC(=O)c1ccc(NC(=O)Cc2cccs2)cc1` registered a kinetic solubility of 32.9 µg/mL (≈ 126 µM). The result for `CCCCNC(=S)N1CCC(Cc2ccccc2)CC1` reads 6.2 µg/mL (≈ 21.3 µM); that for `COc1ccc(OCC(O)CN2CCNCC2)cc1.Cl` (stereo unspecified), 49.5 µg/mL. The result for `O=S(=O)(Cc1ccccc1)NCCc1cccc(Cl)c1` reads 40.5 µg/mL (≈ 131 µM); that for `CCN1CCN(C(=O)C2CC(=O)N(c3ccc(Cl)cc3)C2)CC1` (stereo unspecified), greater than 50.4 µg/mL; that for `CC(C)CCN1C(=O)C2(OCCCO2)c2cc(Cl)ccc21`, 3 µg/mL (≈ 9.68 µM). `Cc1ccc(NC(=O)COC(=O)c2cc(=O)c3ccccc3o2)c(Br)c1`: the solubility (kinetic) was greater than 62.4 µg/mL. For the compound `O=C(Cc1ccccc1F)Nc1ccccc1N1CCCC1`, the solubility (kinetic) is 27.8 µg/mL (≈ 93.2 µM).

In the case of `O=[N+]([O-])c1ccc(Sc2ccccn2)nc1`, the solubility (kinetic) was determined as 34.9 µg/mL (≈ 150 µM). The solubility kinetic values of the last two compounds are within 1.5-fold of each other. For the compound `Cl.NCCc1c[nH]c2ccc(O)cc12`, the solubility (kinetic) was greater than 31.9 µg/mL.

With `Cc1ccc(N2C(=O)CCC2(C(N)=O)c2ccccc2)cc1` (stereo unspecified), the kinetic solubility was greater than 44.2 µg/mL. The result for `CC1CC(C)CN(c2ncnc3c2cnn3C)C1` (stereo unspecified) reads greater than 36.8 µg/mL. The result for `CC1CN(C(=O)COC(=O)/C=C/c2cccc([N+](=O)[O-])c2)CC(C)O1` (stereo unspecified) reads 34.2 µg/mL (≈ 98.2 µM).

The compound `O=C(NCc1ccccc1)c1cnc(Cl)c(Cl)c1` registered a kinetic solubility of 35.9 µg/mL (≈ 128 µM). The result for `CC1COc2ccccc2N1C(=O)c1cccnc1Cl` (stereo unspecified) reads greater than 43.3 µg/mL; that for `O=C1CCCN1CCCNC(=S)Nc1ccc(F)c(Cl)c1`, greater than 49.5 µg/mL; that for `Cn1cc(-c2ccccc2C(=O)O)c(=O)c2ccccc21`, greater than 41.9 µg/mL.

As for `COC(=O)c1sc(-c2cccs2)cc1N`, the kinetic solubility was found to be 7.2 µg/mL (≈ 30.1 µM).

As for `O=C1CN(C(=O)COC(=O)c2ccccc2O)c2ccccc2N1`, the solubility (kinetic) was 3.5 µg/mL (≈ 10.7 µM). The result for `O=[N+]([O-])c1ccc(Cl)c([N+](=O)[O-])c1` reads 13.8 µg/mL (≈ 68.1 µM); that for `Cc1cc2cccc(C)c2nc1SCC(=O)NC1CCCCC1`, less than 0.4 µg/mL; that for `C/C=C/C(=O)OCC(=O)Nc1cccc(F)c1`, greater than 35.6 µg/mL. For `COc1cc(OC)c(C(=S)N2CCCC2)cc1OC`, the kinetic solubility stood at 38.9 µg/mL (≈ 138 µM). For `Cc1ccc(C(=O)OCC(=O)NC(=O)c2cccn2C)cc1[N+](=O)[O-]` the value was 1.3 µg/mL (≈ 3.76 µM); for `Cc1ccc(C)c(OCCC(=O)OCC(=O)NC(=O)NC2CCCCC2)c1`, 3.9 µg/mL (≈ 10.4 µM).

Regarding `O=C(c1cc(Br)c(Br)s1)N1CCc2ccccc2C1`, the solubility (kinetic) was 7 µg/mL (≈ 17.5 µM). As to `Cc1cc(F)ccc1NC(=O)C1CSC2(C)CCC(=O)N12` (stereo unspecified), the kinetic solubility was greater than 46.3 µg/mL. The result for `O=C(Cc1cccs1)Nc1ccc(F)c(F)c1` reads 20.9 µg/mL (≈ 82.5 µM). For `COc1ccc(CCC(=O)Nc2ccc3c(c2)OCO3)cc1OC` the value was 35.5 µg/mL (≈ 108 µM); for `CCc1ccc(NC(=O)C2(C)Cc3ccccc3C(=O)O2)cc1` (stereo unspecified), greater than 46.4 µg/mL. For `O=C(CNC(=O)c1ccccc1F)c1ccc(Br)cc1`, the solubility (kinetic) turned out to be 3.8 µg/mL (≈ 11.3 µM). `COCc1cc(=O)[nH]c(-c2ccc(C(F)(F)F)cc2)n1` displayed a solubility (kinetic) greater than 42.6 µg/mL. For `O=C(NCCOc1ccc(Cl)cc1)c1ccc2c(c1)OCCO2` the value was 6.3 µg/mL (≈ 18.9 µM); for `CSc1cccc(NC(=S)Nc2cc(C)ccc2C)c1`, 22.5 µg/mL (≈ 74.4 µM); for `CC(NC(=O)c1cc(-c2ccccc2)nc2ccccc12)C1CCCO1` (stereo unspecified), greater than 52 µg/mL. As for `C=C(C)CSc1nc2sc3c(c2c(=O)n1-c1ccc(C)cc1)CCN(C)C3`, the solubility (kinetic) was 25.6 µg/mL (≈ 64.4 µM). For `Cn1cnc(S(=O)(=O)Nc2ccccc2C(=O)NCC2CC2)c1` the value was greater than 50.2 µg/mL; for `CC(NC(=O)c1ccco1)C(=O)N1CC=C(c2ccccc2)CC1` (stereo unspecified), greater than 48.7 µg/mL; for `CC1=C(C)CC(C(=O)NCc2ccccn2)C(C(=O)O)C1` (stereo unspecified), greater than 43.3 µg/mL. For `C[N+](C)(C)C[C@H](O)CC(=O)O.[Cl-]` the value was greater than 29.6 µg/mL; for `COc1cccc2cc(C(=O)OCC(=O)NC3CCCC(C)C3C)c(=O)oc12` (stereo unspecified), 13.7 µg/mL (≈ 35.4 µM). `CCC(=NC(C)c1ccccc1)c1c(O)[nH]c(=O)[nH]c1=O` (stereo unspecified) displayed a kinetic solubility greater than 43.1 µg/mL. For `CCOCCCNC1=C(Cl)C(=O)c2ccccc2C1=O` the value was 31.9 µg/mL (≈ 109 µM); for `O=S(=O)(c1ccc(=S)[nH]c1)N1CCOCC1`, 21.6 µg/mL (≈ 83 µM); for `O=S(=O)(Nc1ccccc1N1CCCCC1)c1ccccc1`, 4.4 µg/mL (≈ 13.9 µM). As for `COc1ccc(NC(=S)Nc2ccccc2)c(OC)c1`, the solubility (kinetic) was greater than 43.3 µg/mL. In turn, `O=C1c2cccnc2C(=O)N1CNc1ccc(Cl)cc1` registered a kinetic solubility of 34.5 µg/mL (≈ 120 µM).

`Cc1ccc(NC(=O)COC(=O)c2cccc(C)c2[N+](=O)[O-])cc1S(=O)(=O)N1CCCCC1` gave a solubility (kinetic) of 3.8 µg/mL (≈ 7.99 µM). The result for `COc1ccc(S(=O)(=O)N2CCc3ccccc32)cc1[N+](=O)[O-]` reads 6.4 µg/mL (≈ 19.1 µM); that for `CCn1c(SCC(=O)OC)nnc1-c1ccc(C)cc1`, greater than 43.7 µg/mL; that for `CP(=O)(Nc1ccccc1)C(Cl)(Cl)Cl` (stereo unspecified), greater than 40.9 µg/mL. Take `COc1cccc(Nc2nc3cc(OC)ccc3cc2C#N)c1`: the solubility (kinetic) turned out to be 0.2 µg/mL (≈ 0.655 µM). The result for `Cc1nc(N)c(C#N)c(-c2ccc3c(c2)OCO3)c1C` reads 0.5 µg/mL (≈ 1.87 µM); that for `NS(=O)(=O)c1ccc(CNC(=O)c2ccncc2)cc1`, greater than 43.7 µg/mL. The result for `Cc1nc2ccccc2nc1Nc1cccc(Cl)c1` reads 20.2 µg/mL (≈ 74.9 µM); that for `CCc1ccc(C(=O)NC(C(=O)NCC2CCCO2)C(C)C)cc1` (stereo unspecified), greater than 49.9 µg/mL; that for `COc1cc(/C=C/[N+](=O)[O-])ccc1OC(=O)c1cc2ccccc2oc1=O`, 5.7 µg/mL (≈ 15.5 µM). The result for `c1ccc(CN2CCC3(CC2)Nc2ccccc2S3)cc1` reads 27.9 µg/mL (≈ 94.1 µM). In the case of `CC(=O)N1CCN(C(=O)c2ccc(C)c(S(=O)(=O)N3CCCCC3)c2)CC1`, the solubility (kinetic) was greater than 59 µg/mL. The compound `COc1ccccc1NC(=O)Nc1nc2ccc(S(N)(=O)=O)cc2s1` showed a kinetic solubility of 1.6 µg/mL (≈ 4.23 µM).

`O=C(COC(=O)c1cc(Cl)cc(Cl)c1)NCc1ccco1` displayed a kinetic solubility of 28.4 µg/mL (≈ 86.5 µM).

`CCC(=Nc1ccccc1N)c1c(O)[nH]c(=O)[nH]c1=O`: the solubility (kinetic) was 5.6 µg/mL (≈ 20.4 µM). The result for `CNC(=S)N1CCn2cccc2C1c1cccnc1` (stereo unspecified) reads 40.8 µg/mL (≈ 150 µM).

In turn, `CC(C)C(CCNCc1ccccn1)c1ccc(Cl)cc1` (stereo unspecified) yielded a solubility (kinetic) of 24.8 µg/mL (≈ 81.9 µM). In turn, `O=C(Nc1ccsc1C(=O)O)c1ccccc1` returned a kinetic solubility greater than 37.1 µg/mL. For `CC(C)NC(=O)NNc1c(Cl)cncc1Cl` the value was greater than 39.5 µg/mL; for `C=CCN1C(=O)C2(OCCCO2)c2cc(C)ccc21`, 19.4 µg/mL (≈ 74.8 µM). The result for `O=C(COc1ccccc1F)NCc1ccc(-n2cccc2)cc1` reads 1.1 µg/mL (≈ 3.39 µM). The compound `CCOC(=O)C(=CNc1ccccc1N1CCOCC1)C(=O)OCC` came in with a solubility (kinetic) of 45.6 µg/mL (≈ 131 µM).

`COc1cccc2c(Cl)c(CC=C(Cl)Cl)c(C)nc12` showed a solubility (kinetic) of less than 0.7 µg/mL.

Compound `CC(C)C(=O)Nc1c(-c2ccccc2)c(=O)c2ccccc2n1C` gave a solubility (kinetic) of 9.2 µg/mL (≈ 28.7 µM). The result for `CCCC(=O)c1c[nH]c(C(=O)N2CCOCC2)c1` reads greater than 37.5 µg/mL; that for `CNC(=S)N1CCN(CCNC2=CC(=O)CC(C)(C)C2)CC1`, 44.4 µg/mL (≈ 137 µM); that for `CC(C(=O)Nc1ccc(C#N)cc1)N(C)Cc1cccs1` (stereo unspecified), greater than 44.9 µg/mL.
